Results on 27 compounds are retold here after US12358886B2, “Heterocyclic compounds for use in the treatment of cancer” (Artios Pharma Limited, priority 2019, dated 2025).

Structures are written as SMILES. Read-outs that look alike come from different tables or passages of the source.

The term IC50 denotes the concentration at which inhibition is half-maximal.

The target of this assay is Polθ protein (amino acids 2-2590) (Homo sapiens, UniProt O75417). The assay can be described thus: Polθ full length enzyme potency assay (PicoGreen). Conditions: full length N-His, C-term FLAG tagged Polθ, PicoGreen fluorescence, 12 point concentration response.
Polθ protein (amino acids 2-2590), sequence (O75417 2-2590): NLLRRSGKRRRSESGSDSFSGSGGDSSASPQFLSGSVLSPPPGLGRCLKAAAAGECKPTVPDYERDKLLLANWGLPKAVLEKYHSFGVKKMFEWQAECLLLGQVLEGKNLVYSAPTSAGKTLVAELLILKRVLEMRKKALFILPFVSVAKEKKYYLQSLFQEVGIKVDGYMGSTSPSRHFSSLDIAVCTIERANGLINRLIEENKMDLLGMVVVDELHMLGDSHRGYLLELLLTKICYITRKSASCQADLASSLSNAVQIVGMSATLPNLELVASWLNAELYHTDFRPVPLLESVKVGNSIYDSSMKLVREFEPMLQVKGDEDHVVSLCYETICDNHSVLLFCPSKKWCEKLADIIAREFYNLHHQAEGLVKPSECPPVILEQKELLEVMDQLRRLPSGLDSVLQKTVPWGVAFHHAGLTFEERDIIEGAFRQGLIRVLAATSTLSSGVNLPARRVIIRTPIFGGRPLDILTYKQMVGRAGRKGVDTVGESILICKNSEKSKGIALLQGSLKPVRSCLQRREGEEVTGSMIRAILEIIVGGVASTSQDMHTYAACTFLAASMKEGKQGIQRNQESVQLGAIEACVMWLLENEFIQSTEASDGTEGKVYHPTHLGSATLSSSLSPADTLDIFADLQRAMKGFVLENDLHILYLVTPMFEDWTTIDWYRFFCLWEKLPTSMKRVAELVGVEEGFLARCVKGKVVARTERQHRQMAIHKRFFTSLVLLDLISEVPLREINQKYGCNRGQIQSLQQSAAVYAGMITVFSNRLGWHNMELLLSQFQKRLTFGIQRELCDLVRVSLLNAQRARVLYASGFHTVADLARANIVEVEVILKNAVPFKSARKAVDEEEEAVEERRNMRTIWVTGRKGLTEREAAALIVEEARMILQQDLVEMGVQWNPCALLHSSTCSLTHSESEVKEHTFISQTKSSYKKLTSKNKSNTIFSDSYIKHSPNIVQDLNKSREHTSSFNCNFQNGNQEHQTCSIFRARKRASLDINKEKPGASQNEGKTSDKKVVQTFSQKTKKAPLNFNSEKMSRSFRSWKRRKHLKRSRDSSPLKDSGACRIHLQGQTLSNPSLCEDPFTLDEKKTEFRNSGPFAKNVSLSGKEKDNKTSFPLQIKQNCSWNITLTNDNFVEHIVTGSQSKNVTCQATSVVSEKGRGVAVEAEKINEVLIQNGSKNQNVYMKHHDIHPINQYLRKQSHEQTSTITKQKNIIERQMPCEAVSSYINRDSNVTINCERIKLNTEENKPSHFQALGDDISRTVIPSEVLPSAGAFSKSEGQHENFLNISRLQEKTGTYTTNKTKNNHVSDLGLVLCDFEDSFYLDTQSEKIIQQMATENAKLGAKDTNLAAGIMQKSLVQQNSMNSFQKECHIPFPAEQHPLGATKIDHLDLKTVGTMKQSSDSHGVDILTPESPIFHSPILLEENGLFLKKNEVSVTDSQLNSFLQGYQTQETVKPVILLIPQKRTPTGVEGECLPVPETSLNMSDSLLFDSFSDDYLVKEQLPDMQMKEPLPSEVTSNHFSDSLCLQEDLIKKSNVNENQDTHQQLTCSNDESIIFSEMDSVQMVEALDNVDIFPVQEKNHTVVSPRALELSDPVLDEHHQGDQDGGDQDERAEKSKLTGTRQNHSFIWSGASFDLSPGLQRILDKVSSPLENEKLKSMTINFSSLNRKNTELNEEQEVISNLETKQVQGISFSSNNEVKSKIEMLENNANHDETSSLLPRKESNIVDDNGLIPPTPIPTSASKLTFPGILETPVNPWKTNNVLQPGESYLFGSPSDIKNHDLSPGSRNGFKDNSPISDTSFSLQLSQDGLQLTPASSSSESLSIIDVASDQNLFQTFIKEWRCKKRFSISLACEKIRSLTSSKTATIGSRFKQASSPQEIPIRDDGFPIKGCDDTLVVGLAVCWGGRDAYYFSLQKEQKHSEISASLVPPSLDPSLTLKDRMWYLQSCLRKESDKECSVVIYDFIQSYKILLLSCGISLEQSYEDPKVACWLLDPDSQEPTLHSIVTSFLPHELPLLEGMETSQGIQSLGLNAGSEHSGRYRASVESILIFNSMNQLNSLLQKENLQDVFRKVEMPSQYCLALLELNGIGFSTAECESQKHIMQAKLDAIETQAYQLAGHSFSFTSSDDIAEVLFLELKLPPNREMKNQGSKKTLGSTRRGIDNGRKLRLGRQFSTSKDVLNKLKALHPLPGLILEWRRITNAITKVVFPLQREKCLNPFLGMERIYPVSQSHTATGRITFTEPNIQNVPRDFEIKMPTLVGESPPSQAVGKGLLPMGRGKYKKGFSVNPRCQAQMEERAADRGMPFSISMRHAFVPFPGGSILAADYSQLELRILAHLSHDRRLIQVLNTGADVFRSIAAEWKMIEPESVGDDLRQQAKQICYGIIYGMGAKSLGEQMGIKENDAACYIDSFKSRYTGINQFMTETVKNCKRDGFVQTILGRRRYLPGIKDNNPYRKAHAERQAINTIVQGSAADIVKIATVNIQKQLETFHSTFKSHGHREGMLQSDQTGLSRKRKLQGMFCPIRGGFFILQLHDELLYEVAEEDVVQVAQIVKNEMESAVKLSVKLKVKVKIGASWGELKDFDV

For `Cc1cc(C(F)(F)F)cc(N2C(=O)OC[C@H]2C(=O)N(C)c2cc(Cl)ccc2F)n1` [Example 96, (S)-N-(5-Chloro-2-fluorophenyl)-N-methyl-3-(6-methyl-4-(trifluoromethyl)pyridin-2-yl)-2-oxooxazolidine-4-carboxamide], the IC50 (read-out: Polθ IC50) amounted to 24 nM. In the case of `Cc1cc(C(F)(F)F)c(C#N)c(N2C[C@@H](O)C[C@H]2C(=O)N(C)c2ccc(F)c(CF)c2)n1` [Example 15, (2S,4S)-1-(3-Cyano-6-methyl-4-(trifluoromethyl)pyridin-2-yl)-N-(4-fluoro-3-(fluoromethyl)-phenyl)-4-hydroxy-N-methyl-pyrrolidine-2-carboxamide], the IC50 (Polθ IC50 (nM)) is 57 nM. Where the note is “Polθ IC50 (nM)”, `CCN(C(=O)[C@@H]1C[C@H](NC(C)=O)C(=O)N1c1cc(C(F)(F)F)cc(C)n1)c1ccc(F)c(Cl)c1` [Example 62, (2S,4S)-4-Acetamido-N-(3-chloro-4-fluorophenyl)-N-ethyl-1-(6-methyl-4-(trifluoromethyl)pyridin-2-yl)-5-oxopyrrolidine-2-carboxamide] had an IC50 of 208 nM.

For `Cc1cc(C(F)(F)F)cc(N2C(=O)N(CCCN(C)C)C[C@H]2C(=O)N(C)c2ccc(F)c(Cl)c2)n1` [Example 183, (S)-N-(3-Chloro-4-fluorophenyl)-1-(3-(dimethylamino)propyl)-N-methyl-3-(6-methyl-4-(trifluoromethyl)pyridin-2-yl)-2-oxoimidazolidine-4-carboxamide], where the note is “Polθ IC50 (nM)”, the IC50 came to 24 nM. On the same count and under the same terms, next, `Cc1cc(C(F)(F)F)cc(N2C(=O)N(CCS(C)(=N)=O)C[C@H]2C(=O)N(C)c2ccc(F)c(Cl)c2F)n1` (stereo partly drawn) [Example 212, (4S)—N-(3-Chloro-2,4-difluorophenyl)-N-methyl-3-(6-methyl-4-(trifluoromethyl)pyridin-2-yl)-1-(2-(S-methylsulfonimidoyl)ethyl)-2-oxoimidazolidine-4-carboxamide]: 6 nM; `Cc1cc(C(F)(F)F)cc(N2C(=O)N(CC(O)CN3CCC(F)C3)C[C@H]2C(=O)N(C)c2ccc(F)c(Cl)c2F)n1` (stereo in doubt) [Example 215, (4S)—N-(3-Chloro-2,4-difluorophenyl)-1-(3-((R)-3-fluoropyrrolidin-1-yl)-2-hydroxy-propyl)-N-methyl-3-(6-methyl-4-(trifluoromethyl)pyridin-2-yl)-2-oxoimidazolidine-4-carboxamide]: 8 nM; `Cc1cc(C(F)(F)F)cc(N2C(=O)[C@H](O)[C@H](O)[C@H]2C(=O)N(C)c2ccc(F)c(Cl)c2)n1` [Example 72, (2S,3R,4R)—N-(3-Chloro-4-fluorophenyl)-3,4-dihydroxy-N-methyl-1-(6-methyl-4-(trifluoromethyl)pyridin-2-yl)-5-oxopyrrolidine-2-carboxamide]: 32 nM.

In turn, `CN(C(=O)[C@@H]1COC(=O)N1c1cc(C(F)(F)F)cc(Cl)n1)c1ccc(F)c(Cl)c1` [Example 113, (S)-3-(6-Chloro-4-(trifluoromethyl)pyridin-2-yl)-N-(3-chloro-4-fluorophenyl)-N-methyl-2-oxooxazolidine-4-carboxamide] showed an IC50 (Polθ IC50 (nM)) of 21 nM. `CCN(C(=O)[C@H]1C[C@@H](NCCS(C)(=O)=O)CN1c1nc(C)cc(C)c1C#N)c1cccc(C)c1` (stereo in doubt) [Example 45, (2R,4R)-1-(3-Cyano-4,6-dimethylpyridin-2-yl)-N-ethyl-4-((2-(methylsulfonyl)ethyl)-amino)-N-(m-tolyl)pyrrolidine-2-carboxamide]: the IC50 (Polθ IC50 (nM)) came out at 85 nM. Same read-out and setting: next, `CCN(C(=O)[C@@H]1C[C@H](O)CN1c1nc(C)cc(C)c1C#N)c1cccc(C)c1` [Example 21, (2S,4S)-1-(3-Cyano-4,6-dimethylpyridin-2-yl)-N-ethyl-4-hydroxy-N-(m-tolyl)pyrrolidine-2-carboxamide]: 77 nM; `CCN(C(=O)[C@@H]1C[C@H](N(C)C2CNC(=O)C2)CN1c1cc(C(F)(F)F)cc(C)n1)c1ccc(F)c(F)c1` (stereo partly drawn) [Example 145, (2S,4S)-N-(3,4-Difluorophenyl)-N-ethyl-4-(methyl(5-oxopyrrolidin-3-yl)amino)-1-(6-methyl-4-(trifluoromethyl)pyridin-2-yl)pyrrolidine-2-carboxamide]: 708 nM; `Cc1cc(C(F)(F)F)cc(N2C(=O)OC[C@H]2C(=O)N(C)c2ccc3cc[nH]c3c2)n1` [Example 126, (S)—N-(1H-Indol-6-yl)-N-methyl-3-(6-methyl-4-(trifluoromethyl)pyridin-2-yl)-2-oxooxazolidine-4-carboxamide]: 11 nM. Same read-out and setting: next, `CCN(C(=O)[C@@H]1C[C@H](N(C)[C@@H]2COCC[C@H]2O)CN1c1cc(C(F)(F)F)cc(C)n1)c1ccc(F)c(F)c1` [Example 140, (2S,4S)-N-(3,4-Difluorophenyl)-N-ethyl-4-(((3R,4R)-4-hydroxytetrahydro-2H-pyran-3-yl)(methyl)amino)-1-(6-methyl-4-(trifluoromethyl)pyridin-2-yl)pyrrolidine-2-carboxamide]: 60 nM; `Cc1cc(C(F)(F)F)cc(N2C(=O)[C@@H](O)[C@@H](O)[C@H]2C(=O)N(C)c2ccc3c(n2)N(C)CCO3)n1` [Example 169, (2S,3S,4S)-3,4-Dihydroxy-N-methyl-N-(4-methyl-3,4-dihydro-2H-pyrido[3,2-b][1,4]oxazin-6-yl)-1-(6-methyl-4-(trifluoromethyl)pyridin-2-yl)-5-oxopyrrolidine-2-carboxamide]: 106 nM.

`CO[C@H]1C[C@@H](C(=O)N(C)c2cccc(C)c2)N(c2nc(C)cc(C(F)(F)F)c2C#N)C1` [Example 36, (2S,4S)-1-(3-Cyano-6-methyl-4-(trifluoromethyl)pyridin-2-yl)-4-methoxy-N-methyl-N-(m-tolyl)pyrrolidine-2-carboxamide] showed an IC50 (Polθ IC50 (nM)) of 48 nM.

For the compound `Cc1cc(C(F)(F)F)c(C#N)c(N2CC[C@@H](O)[C@H]2C(=O)N(C)c2ccc(F)c(Cl)c2)n1` [Example 81, (2S,3R)—N-(3-Chloro-4-fluorophenyl)-1-(3-cyano-6-methyl-4-(trifluoromethyl)pyridin-2-yl)-3-hydroxy-N-methylpyrrolidine-2-carboxamide], for the setting “Polθ IC50 (nM)”, the IC50 came to 8 nM. Same read-out and setting: with `CCN(C(=O)[C@@H]1C[C@@H](N(C)C)CN1c1nc(C)cc(C)c1C#N)c1cccc(C)c1` [Example 41, (2S,4R)-1-(3-Cyano-4,6-dimethylpyridin-2-yl)-4-(dimethylamino)-N-ethyl-N-(m-tolyl)pyrrolidine-2-carboxamide] the figure was 263 nM; with `CCN(C(=O)[C@@H]1C[C@H](N2CCC(O)C2)CN1c1cc(C(F)(F)F)cc(C)n1)c1ccc(F)c(F)c1` (stereo partly drawn) [Example 129, (3S,5S)-N-(3,4-Difluorophenyl)-N-ethyl-3-hydroxy-1′-(6-methyl-4-(trifluoromethyl)pyridin-2-yl)-[1,3′-bipyrrolidine]-5′-carboxannide], 78 nM. For `CCN(C(=O)[C@@H]1C[C@H](O)CN1c1nc(C)cc(C(F)(F)F)c1C#N)c1cccc(C)c1` [Example 22, (2S,4S)-1-(3-Cyano-6-methyl-4-(trifluoromethyl)pyridin-2-yl)-N-ethyl-4-hydroxy-N-(m-tolyl)-pyrrolidine-2-carboxamide], the IC50 (read-out: Polθ IC50) was found to be 27 nM. Where the note is “Polθ IC50 (nM)”, `Cc1cc(C(F)(F)F)cc(N2C(=O)NC[C@H]2C(=O)N(C)c2ccc3occ(C)c3n2)n1` [Example 236, (S)—N-Methyl-3-(6-methyl-4-(trifluoromethyl)pyridin-2-yl)-N-(3-methylfuro[3,2-b]pyridin-5-yl)-2-oxoimidazolidine-4-carboxamide] had an IC50 of 14 nM.

With `Cc1cc(C(F)(F)F)cc(N2C(=O)NC[C@H]2C(=O)N(C)c2ccc3cnn(C)c3c2)n1` [Example 235, (S)—N-Methyl-N-(1-methyl-1H-indazol-6-yl)-3-(6-methyl-4-(trifluoromethyl)pyridin-2-yl)-2-oxoimidazolidine-4-carboxamide], half-maximal inhibition (Polθ IC50 (nM)) (IC50) required 27 nM. Same read-out and setting: next, `CN(C(=O)[C@@H]1COC(=O)N1c1cc(C(C)(C)C)cc(Cl)n1)c1ccc(F)c(Cl)c1` [Example 122, (S)-3-(4-(tert-Butyl)-6-chloropyridin-2-yl)-N-(3-chloro-4-fluorophenyl)-N-methyl-2-oxooxazolidine-4-carboxamide]: 41 nM. For the compound `Cc1cc(C(F)(F)F)cc(N2C(=O)N(CC3(O)CNC3)C[C@H]2C(=O)N(C)c2ccc(F)c(Cl)c2F)n1` [Example 224, (S)—N-(3-Chloro-2,4-difluorophenyl)-1-((3-hydroxyazetidin-3-yl)methyl)-N-methyl-3-(6-methyl-4-(trifluoromethyl)pyridin-2-yl)-2-oxoimidazolidine-4-carboxamide], the IC50 (Polθ IC50 (nM)) is 6 nM. Same read-out and setting: with `Cc1cc(C(F)(F)F)cc(N2C(=O)CC[C@H]2C(=O)N(C)c2ccc(F)c(C)n2)n1` [Example 60, (S)—N-(5-Fluoro-6-methylpyridin-2-yl)-N-methyl-1-(6-methyl-4-(trifluoromethyl)pyridin-2-yl)-5-oxopyrrolidine-2-carboxamide] the figure was 76 nM. For `CCN(C(=O)[C@H]1C[C@@H](N(C)C2CCNC2)CN1c1nc(C)cc(C)c1C#N)c1cccc(C)c1` (stereo in doubt) [Example 48, (2R,4R)-1-(3-Cyano-4,6-dimethylpyridin-2-yl)-N-ethyl-4-(methyl(pyrrolidin-3-yl)amino)-N-(m-tolyl)pyrrolidine-2-carboxamide], where the note is “Polθ IC50 (nM)”, the IC50 amounted to 573 nM. Same read-out and setting: with `CCN(C(=O)[C@@H]1C[C@H](N(C)CCS(C)(=O)=O)CN1c1nc(C)cc(C)c1C#N)c1cccc(C)c1` [Example 46, (2S,4S)-1-(3-Cyano-4,6-dimethylpyridin-2-yl)-N-ethyl-4-(methyl(2-(methylsulfonyl)-ethyl)amino)-N-(m-tolyl)-pyrrolidine-2-carboxamide] the figure was 227 nM. In the case of `CCN(C(=O)[C@@H]1COC(=O)N1c1cc(C(F)(F)F)cc(C)n1)c1ccc(F)c(Cl)c1` [Example 103, (S)-N-(3-Chloro-4-fluorophenyl)-N-ethyl-3-(6-methyl-4-(trifluoromethyl)-pyridin-2-yl)-2-oxooxazolidine-4-carboxamide], the IC50 (read-out: Polθ IC50) stood at 54 nM.
